Assay results published in ChEMBL document CHEMBL1201862, “PubChem BioAssay data set” (2004).
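Following 48 hours of exposure in 96-well plates, responses at five concentrations were used to interpolate endpoints linearly. GI50 is the concentration that inhibits growth by half.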 Calls of active or inactive are those of the source. Cut-off read from the data, not from the text of the source: active = GI50 up to about 1.1 µM and inactive = higher.

Key:
Experiment in all cases: growth of human tumour cells (NCI), 48 h
[1] = tested on: K562
[2] = tested on: NCI-H23
[3] = tested on: HCT-116
[4] = tested on: M14
[5] = tested on: KM12
[6] = tested on: OVCAR-4
[7] = tested on: BT-549
[8] = tested on: OVCAR-8
[9] = tested on: HOP-62
[10] = tested on: NCI-H226
[11] = tested on: SN12C
[12] = tested on: PC-3
[13] = tested on: SNB-19
[14] = tested on: EKVX
[15] = tested on: ACHN
[16] = tested on: 786-0
[17] = tested on: IGROV-1
[18] = tested on: HL-60

Measured: GI50

NNC(=O)C1(NC(=O)c2ccccc2)C(c2ccccc2)C(c2ccccc2)=NN1c1ccccc1 (centres undefined)
inactive: [1] 27.2 µM | [2] 54 µM | [3] 37 µM | [4] 22.8 µM | [5] 35.1 µM | [6] 12.8 µM | [7] 71.8 µM | [8] 55.5 µM | [9] 34 µM | [10] > 100 µM | [11] 63.2 µM | [12] 24.4 µM | [13] 66.2 µM | [14] 42.3 µM | [15] 35.5 µM | [16] 50.5 µM | [17] 34.9 µM

CCOC(=O)C1(C(=O)OCC)OC(C)=NC1(C(=O)OC)C(=O)OC
inactive: [1] > 100 µM | [2] > 100 µM | [3] > 100 µM | [4] > 100 µM | [5] > 100 µM | [18] 1.15 µM | [6] > 100 µM | [7] > 31.6 µM | [8] > 100 µM | [9] > 100 µM | [10] > 62.5 µM | [11] > 100 µM | [12] > 100 µM | [13] > 100 µM | [14] > 26.2 µM | [15] > 100 µM | [16] > 100 µM | [17] > 100 µM

O=Cc1ccc(OCc2cccc(COc3ccc(/C=N\Nc4ccc([N+](=O)[O-])cc4[N+](=O)[O-])cc3)n2)cc1
inactive: [1] > 100 µM | [2] > 100 µM | [3] > 100 µM | [4] > 100 µM | [5] > 100 µM | [18] > 100 µM | [6] > 100 µM | [7] > 100 µM | [8] 61 µM | [9] 19.6 µM | [10] > 100 µM | [11] > 100 µM | [12] > 100 µM | [13] > 100 µM | [14] > 100 µM | [15] > 100 µM | [16] > 100 µM | [17] > 100 µM

c1ccc(NNC2=NCCN2)cc1
inactive: [1] > 100 µM | [2] > 100 µM | [3] > 100 µM | [4] > 100 µM | [5] > 100 µM | [18] > 100 µM | [6] > 100 µM | [7] > 100 µM | [8] > 100 µM | [9] > 100 µM | [10] > 100 µM | [11] > 100 µM | [12] > 100 µM | [13] > 100 µM | [14] > 100 µM | [15] > 100 µM | [16] > 100 µM | [17] > 100 µM

O=C(O)c1nc2ccc(C(F)(F)F)cc2nc1Nc1ccc(Cl)c(Cl)c1
inactive: [1] 3.66 µM | [2] 4.17 µM | [3] 5.12 µM | [5] 6.98 µM | [18] 5.62 µM | [6] 6.98 µM | [7] 2.62 µM | [8] 4.91 µM | [9] 7.85 µM | [10] 10.6 µM | [11] 7.67 µM | [12] 4.58 µM | [13] 2.16 µM | [14] 7.26 µM | [15] 7.67 µM | [16] 10.5 µM | [17] 12.8 µM

COc1ccc(/C=C2\CCC(C)C3=C(c4ccc(OC)c(OC)c4)C(C#N)=C(N)OC32)cc1OC (centres undefined)
inactive: [1] 3.78 µM | [2] 2.7 µM | [3] 2.82 µM | [4] 3.17 µM | [5] 3.3 µM | [18] 2.63 µM | [7] 3.51 µM | [8] 4.01 µM | [10] 2.39 µM | [11] 3.45 µM | [12] 3.13 µM | [13] 7.94 µM | [14] 1.86 µM | [15] 3.66 µM | [16] 3.35 µM | [17] 2.39 µM
